Assay results from patent US20240384268A1, “Oligonucleotides” (Hudson Institute of Medical Research, priority 2021, published 2024).
In the oligonucleotide strings, read from the 5' end, every base follows the letter of its sugar. An asterisk marks phosphorothioate; unmarked linkages are phosphodiester. Other units and linkages are bracketed, terminal groups are in braces. A string of capitals states the bases alone. d = 2'-deoxy (DNA); m = 2'-O-methyl

Target: T1, human TLR7 (Homo sapiens, UniProt Q9NYK1)
T1 construct: HA; host or cells: 293XL-hTLR7-HA (HEK293)
T1 sequence (Q9NYK1 27-1049): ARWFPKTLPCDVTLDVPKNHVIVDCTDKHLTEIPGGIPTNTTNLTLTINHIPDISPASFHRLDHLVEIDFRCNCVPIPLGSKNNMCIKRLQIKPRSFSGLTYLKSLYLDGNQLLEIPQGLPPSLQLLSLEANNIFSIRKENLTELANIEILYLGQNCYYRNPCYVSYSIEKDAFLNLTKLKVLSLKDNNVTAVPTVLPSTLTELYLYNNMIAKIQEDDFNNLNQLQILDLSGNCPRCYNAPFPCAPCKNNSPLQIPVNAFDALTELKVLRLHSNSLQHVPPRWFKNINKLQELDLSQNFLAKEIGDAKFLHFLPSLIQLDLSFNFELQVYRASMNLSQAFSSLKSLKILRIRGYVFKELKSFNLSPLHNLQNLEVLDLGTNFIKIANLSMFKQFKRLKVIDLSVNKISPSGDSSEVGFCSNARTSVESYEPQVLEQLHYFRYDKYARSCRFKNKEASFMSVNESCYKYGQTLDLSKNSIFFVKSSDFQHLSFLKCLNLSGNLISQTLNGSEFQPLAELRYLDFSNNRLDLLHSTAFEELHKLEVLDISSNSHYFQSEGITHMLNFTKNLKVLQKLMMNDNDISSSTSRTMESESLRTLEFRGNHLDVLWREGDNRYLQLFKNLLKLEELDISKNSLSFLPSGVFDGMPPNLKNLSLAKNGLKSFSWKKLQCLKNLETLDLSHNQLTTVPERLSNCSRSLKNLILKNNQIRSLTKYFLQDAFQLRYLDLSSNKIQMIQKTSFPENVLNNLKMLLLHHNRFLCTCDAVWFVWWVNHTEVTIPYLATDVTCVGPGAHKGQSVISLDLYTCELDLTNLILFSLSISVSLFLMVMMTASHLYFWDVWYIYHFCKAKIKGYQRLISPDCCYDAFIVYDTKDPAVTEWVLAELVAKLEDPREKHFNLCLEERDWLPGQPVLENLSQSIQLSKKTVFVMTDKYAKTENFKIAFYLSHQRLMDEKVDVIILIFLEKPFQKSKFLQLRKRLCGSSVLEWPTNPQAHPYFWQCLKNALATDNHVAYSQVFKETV
Assay: HEK-TLR7 NF-κB-luciferase reporter, R848 stimulation
Format: cell-based
Details: for TLR7 400 nM: 3mer 2'OMe ASO at 400 nM; for TLR7 400 nM / TLR7 2 uM: value relative to Ligand only = 1.000, NT = 0.000; for TLR7 2 uM: 3mer 2'OMe ASO at 2 uM; for TLR7 100 nM (averaged NF-κB-Luciferase level relative to R848 condition): ASO 100 nM; for TLR7 100 nM (averaged NF-κB-Luciferase level relative to R848 condition) / TLR7 500 nM (averaged NF-κB-Luciferase level relative to R848 condition): relative to R848 only, given as fraction; for TLR7 500 nM (averaged NF-κB-Luciferase level relative to R848 condition): ASO 500 nM; for inhibition of TLR7 by 3-mer 2′OMe oligos (in words): 400 nM and 2 μM 3-mer, ~30 min, R848 1 μg/ml
Experimental: In such examples, inhibition of TLR7 activity can be identified by observation of an overall decreased TLR7 response of the cell population, or a lower proportion of cells having TLR7-positive activity as compared to positive control condition in which cells are treated with TLR7 agonist in the absence of the oligonucleotide (or in the presence of an appropriate control inhibitory agent). In one example, 293XLhTLR7 (referred to as HEK-TLR7) cells are transfected with pNF-κB-Luc4 reporter, incubated with an oligonucleotide, and then stimulated with R848. TLR7 activity can be determined by a luciferase assay, which measures activated NF-κB by luminescence. TLR7 activity can also be analysed by measuring cytokine levels, for example by ELISA. […] TLR7 activity may then be assessed by the gene or protein expression of TLR7-responsive genes, such as Tnfα and Oas3.
For cGAS stimulations, cells were treated for indicated duration with ASOs, prior to transfection with ISD70 (human cells) or ISD45 (mouse cells) (the ASOs were not washed off prior to ISD transfection unless otherwise indicated). The cGAS ligands ISD45 (Stetson and Medzhitov, 2006) and ISD70 (also known as VACV-70 (Unterholzner et al., 2010)) (Table 1) were resuspended as follows: 5 1d of sense and 5 μl of antisense strands at 10 μg/μl were added to 90 μl PBS under sterile conditions, heated at 75° C. for 30 min, prior to letting cool down at room temperature and aliquoting (stock at 1 μg/1 l). The ISDs were transfected at a concentration of […] at a ratio of 1 μg:1 μl with Lipofectamine 2000 in Opti-MEM (Thermo Fisher Scientific). HEK-TLR3, HEK-TLR7 and […] were treated with indicated concentration of ASOs for 20-50 min, prior to stimulation with poly(I:C) (Invivogen), R848 (Invivogen), Motolimod (MedChemExpress) and the Class B CpG oligonucleotides ODN 2006 (synthesised by IDT and resuspended in RNase-free TE buffer [Table 1]), respectively. The TLR2/1 agonist PAM3CSK4 (Invivogen), the TLR4 agonist lipopolysaccharide (Invivogen), the Class B CpG oligonucleotides ODN 1826 (synthesised by IDT and resuspended in RNase-free TE buffer), the mouse Sting agonist DMXAA (Cayman) and the human STING agonist (compound #3 from (Raanjulu et al., 2018), referred to as GSK herein—kind gift from Cancer Therapeutics CRC, Australia) were used at indicated concentrations. Aspirin (Sigma—A2093) was resuspended in pure medium to 10 mM, filter sterilised and added to the cells at 2 mM final. All ASOs were synthesised by Integrated DNA Technologies (IDT), and resuspended in RNase-free TE buffer, pH 8.0 (Thermo Fisher Scientific). Cell viability was assessed by adding 1× fresh resazurin solution to the wells (10λ solution made up with 7 mg resazurin [Sigma—R7017] dissolved in 3.5 ml PBS, sterile filtered at […]) for 4 h, prior to reading at with a Fluostar OPTIMA (BMG LABTECH) plate-reader (fluorescence: Excitation 535 nm, Emission 590); wells with medium only and 1× resazurin were used as blanks.
Following transfection, the cells were collected from the 6-wells and aliquoted into 96-wells, just before ASO and overnight TLR stimulation (as above described). Similarly, the LL171 cells expressing and ISRE-Luc reporter were treated overnight.

Substance | TLR7 400 nM (HEK-TLR7) | TLR7 2 uM (HEK-TLR7) | TLR7 100 nM (averaged NF-κB-Luciferase level relative to R848 condition) | TLR7 500 nM (averaged NF-κB-Luciferase level relative to R848 condition) | also measured
mUmCmA (mU*mC*mA) [UCA, 3-mer 2′OMe PS oligo] | 1.122 | 0.819 | – | – | –
CCAAGATCAGCAGTCT (antisense; LNA-modified, pattern not given here) [CTNN2B-2341 LNA KL] | – | – | 0.882 | 0.697 | –
dA*dG*dC (DNA AGC; listed as DNA, chemistry not fully specified) | 1.401 | 0.726 | – | – | –
TTTTGGCTGGGATCAA (antisense; LNA-modified, pattern not given here) [CAMSAP1-4697 LNA KL] | – | – | 0.564 | 0.305 | –
GCATCCACCACGTCGT (antisense; LNA-modified, pattern not given here) [EGFR-3267 LNA V1] | – | – | 0.555 | 0.085 | –
TGCACACTTCGTACCC (antisense; LNA-modified, pattern not given here) [CAMSAP1-4916 LNA V1] | – | – | 0.806 | 0.299 | –
UAG (mU*mA*mG) | 1.158 | 0.918 | – | – | –
AAU (antisense mA*mA*mU) | 1.340 | 0.888 | – | – | –
dG*dC*dC [GCC] | 1.360 | 0.645 | – | – | –
mGmUmC (mG*mU*mC) [GUC, 3-mer 2′OMe PS oligo] | 0.140 | 0.017 | – | – | inhibition of TLR7 by 3-mer 2′OMe oligos (in words) (HEK-TLR7): most potent 3-mer inhibiting TLR7
ACU (antisense mA*mC*mU) | 1.322 | 0.916 | – | – | –
mGmAmU (mG*mA*mU) [GAU, 3-mer 2′OMe PS oligo] | 1.406 | 0.580 | – | – | inhibition of TLR7 by 3-mer 2′OMe oligos (in words) (HEK-TLR7): selectively inhibited TLR7 sensing; IC50 (HEK-TLR7, oligo ~30-50 min before 1 μg/ml R848 overnight, read-out: IC50 (R848 sensing by TLR7)): 0.3 µM
CAACACTTCGTGGGGT (antisense; LNA-modified, pattern not given here) [HPRT LNA-667 V1] | – | – | 0.663 | 0.476 | –
GTGTCTGGAAGCTTCC (antisense; LNA-modified, pattern not given here) [CTNN2B-809 LNA V1] | – | – | 0.355 | 0.067 | –
CUC (mC*mU*mC) | 1.288 | 0.984 | – | – | –
GGU (mG*mG*mU) | 0.938 | 0.847 | – | – | –
mC*mG*mU*T*T*C*C*C*C*C*C*C*C*C*C*C*C*C*C*C (CGUTTCCCCCCCCCCCCCCC; antisense; sugars from the 5' end m3 d17, all phosphorothioate, methylation of C not given here) [[C2]Mut1-v3-dC] | – | – | – | – | inhibition of R848 sensing by TLR7, short pre-treatment (in words) (HEK-TLR7, 100-500 nM oligo 20-50 min before R848 1 μg/ml): significantly altered TLR7 inhibition
GTATCGAAAGAGTCTG (antisense; LNA-modified, pattern not given here) [EGFR-3908 LNA KL] | – | – | 0.562 | 0.113 | –
dC*dA*dA (CAA; listed as DNA, chemistry not fully specified) | 1.175 | 0.787 | – | – | –
dA*dC*dA (DNA ACA; listed as RNA, chemistry not fully specified) | 1.234 | 0.831 | – | – | –
TGGCCTCCCATCTCCT (antisense; LNA-modified, pattern not given here) [HPRT LNA-329 V1] | – | – | 0.877 | 0.217 | –
UUG (listed as RNA, chemistry not fully specified) | 0.945 | 1.074 | – | – | –
